According to PubChem BioAssay AID1919013 (Molecular Pharmacology Branch, DTP, NCI, 2023):

Test system: LG0703-F498-PDC complex spheroid growth
Assay: Anticancer human tumor LG0703-F498-PDC patient-derived lung adenocarcinoma cell line growth inhibition [AhR]
Settings: for IC50: curve of first compound; for viability, T/C: stronger effect = lower value
Method in brief: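 Complex tumor spheroids co-cultured with HUVEC and human MSC stroma; AhR antagonists tested in combination with standard-of-care and investigational agents. Top concentration at or near clinical Cmax (else 10 microM), half-log dilutions; growth expressed as percent test/control.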

[1] = second compound 0.1 µM, first compound 0.0316 µM
[2] = second compound 0.1 µM, first compound 0.1 µM
[3] = second compound 0.1 µM, first compound 0.316 µM
[4] = second compound 0.1 µM, first compound 1 µM
[5] = second compound 0.1 µM, first compound 3.16 µM
[6] = second compound 0.1 µM, first compound 10 µM
[7] = second compound 0.316 µM, first compound 0.0316 µM
[8] = second compound 0.316 µM, first compound 0.1 µM
[9] = second compound 0.316 µM, first compound 0.316 µM
[10] = second compound 0.316 µM, first compound 1 µM
[11] = second compound 0.316 µM, first compound 3.16 µM
[12] = second compound 0.316 µM, first compound 10 µM
[13] = second compound 1 µM, first compound 0.0316 µM
[14] = second compound 1 µM, first compound 0.1 µM
[15] = second compound 1 µM, first compound 0.316 µM
[16] = second compound 1 µM, first compound 1 µM
[17] = second compound 1 µM, first compound 3.16 µM
[18] = second compound 1 µM, first compound 10 µM
[19] = second compound 3.16 µM, first compound 0.0316 µM
[20] = second compound 3.16 µM, first compound 0.1 µM
[21] = second compound 3.16 µM, first compound 0.316 µM
[22] = second compound 3.16 µM, first compound 1 µM
[23] = second compound 3.16 µM, first compound 3.16 µM
[24] = second compound 3.16 µM, first compound 10 µM
[25] = second compound 10 µM, first compound 0.0316 µM
[26] = second compound 10 µM, first compound 0.1 µM
[27] = second compound 10 µM, first compound 0.316 µM
[28] = second compound 10 µM, first compound 1 µM
[29] = second compound 10 µM, first compound 3.16 µM
[30] = second compound 10 µM, first compound 10 µM
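Also: luminescence taken as a proxy for viable cell amount.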
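For viability, T/C in this document: percent of DMSO vehicle control where 100% means growth equal to vehicle.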

CC1(C)CCC(CN2CCN(c3ccc(C(=O)NS(=O)(=O)c4ccc(NCC5CCOCC5)c([N+](=O)[O-])c4)c(Oc4cnc5[nH]ccc5c4)c3)CC2)=C(c2ccc(Cl)cc2)C1 + Cc1ccccc1N=Nc1ccc(NC(=O)c2ccnn2C)c(C)c1
IC50 (second compound 0.1 µM): 6.26 µM
IC50 (second compound 0.316 µM): 6.52 µM
IC50 (second compound 1 µM): 5.65 µM
IC50 (second compound 3.16 µM): 5.77 µM
IC50 (second compound 10 µM): 7.19 µM
viability, T/C [1]: 102%
viability, T/C [2]: 94.5%
viability, T/C [3]: 94.1%
viability, T/C [4]: 94.3%
viability, T/C [5]: 95.2%
viability, T/C [6]: 19.1%
viability, T/C [7]: 98.7%
viability, T/C [8]: 104%
viability, T/C [9]: 100%
viability, T/C [10]: 89.5%
viability, T/C [11]: 92.9%
viability, T/C [12]: 24.5%
viability, T/C [13]: 96.8%
viability, T/C [14]: 87%
viability, T/C [15]: 107%
viability, T/C [16]: 91.1%
viability, T/C [17]: 78.5%
viability, T/C [18]: 22.2%
viability, T/C [19]: 79%
viability, T/C [20]: 90.9%
viability, T/C [21]: 82.9%
viability, T/C [22]: 107%
viability, T/C [23]: 75.4%
viability, T/C [24]: 26.8%
viability, T/C [25]: 95%
viability, T/C [26]: 86%
viability, T/C [27]: 96.2%
viability, T/C [28]: 76.2%
viability, T/C [29]: 83.3%
viability, T/C [30]: 37.7%

CC1COCCN1c1cc(C2(S(C)(=N)=O)CC2)nc(-c2ccnc3[nH]ccc23)n1 (stereo not given) + Cc1ccccc1N=Nc1ccc(NC(=O)c2ccnn2C)c(C)c1
IC50 (second compound 0.1 µM): > 10 µM
IC50 (second compound 0.316 µM): > 10 µM
IC50 (second compound 1 µM): > 10 µM
IC50 (second compound 3.16 µM): > 10 µM
IC50 (second compound 10 µM): > 10 µM
viability, T/C [1]: 108%
viability, T/C [2]: 101%
viability, T/C [3]: 97%
viability, T/C [4]: 99.5%
viability, T/C [5]: 94.8%
viability, T/C [6]: 67.6%
viability, T/C [7]: 100%
viability, T/C [8]: 92.7%
viability, T/C [9]: 105%
viability, T/C [10]: 98%
viability, T/C [11]: 95%
viability, T/C [12]: 64.1%
viability, T/C [13]: 99.2%
viability, T/C [14]: 92.9%
viability, T/C [15]: 93.7%
viability, T/C [16]: 96.6%
viability, T/C [17]: 82.1%
viability, T/C [18]: 67.4%
viability, T/C [19]: 81.9%
viability, T/C [20]: 88.5%
viability, T/C [21]: 107%
viability, T/C [22]: 87.5%
viability, T/C [23]: 68.6%
viability, T/C [24]: 56.1%
viability, T/C [25]: 91.4%
viability, T/C [26]: 77.2%
viability, T/C [27]: 95.4%
viability, T/C [28]: 91.9%
viability, T/C [29]: 79.7%
viability, T/C [30]: 65.2%
